Results: patent publication US6444850B1, “Fungicidial compounds having a fluorovinyloxphyenyl moiety and process for the preparation thereof” (priority 1997, dated 2002)

How the values were obtained:
[1] = test system: Phytophthora infestans; type: in vivo; conditions: 50 ppm; control value, tomato late blight
[2] = test system: Puccinia recondita; test: Fungicidal activity against wheat leaf rust (WLR) disease; type: in vivo; conditions: for C. V. (%) WLR: 50 ppm, control value, wheat leaf rust; for C. V. (%), Fungicidal Activities against WLB at 10 ppm: Table 8 (Test Example 5)
[3] = test system: Rhizoctonia solani AG-1; test: Fungicidal activity against rice sheath blight (RSB) disease; conditions: 50 ppm, control value
[4] = test system: Pyricularia oryzae Carvara KA301; type: in vivo; conditions: for C. V. (%) RCB: 50 ppm, control value, rice blast; for C. V. (%) Fungicidal Activities against RCB at 10 ppm / C. V. (%) Fungicidal Activities against RCB at 10 ppm (TABLE 6): sprayed on Nakdong rice plant, control value from lesion area
[5] = test system: Botrytis cinerae; test: Fungicidal activity against cucumber gray mold rot (CGM) disease; type: in vivo; conditions: 50 ppm, control value
Method: Botrytis cinerae, which was isolated from cucumber infected thereby, was inoculated on a PDA agar medium and cultured under a 12L/12D cycle at 25° C. for 15 days to form spore. The spores were scraped, filtered through a gauze and then suspended in potato dextrose liquid medium at a concentration of 1×10^6 spore/ml. The spore suspension was sprayed on a cucumber plant having one leaf. The cucumber plant was held in a humidified room at 20° C. for 3 days. L.A. on a leaf was measured to calculate an C.V.

[6] = test system: Erysiphae graminis; test: Fungicidal activity against barley powdery mildew (BPM) disease; type: in vivo; conditions: for C. V. (%) BPM: 50 ppm, control value, barley powdery mildew; for C. V. (%), Fungicidal activities against TLB at 10 ppm: Table 9 (Test Example 6)
Method: Erysiphae graminis was subcultured on a wheat plant in a laboratory. 15 g of barley seeds was sowed in a pot (diameter 6.5 cm) and cultured in a greenhouse for 7 days to obtain a barley plant having only a primary leaf. The barley plant was inoculated with spores by shaking thereover another plant infected by BPM. The inoculated barley plant was cultured in an incubator maintained at a temperature of 22 to 24° C. and a relative humidity of 50% for 7 days to induce BPM. L.A. on the leaf was measured to calculate an C.V.

SMILES | C. V. (%) TLB [1] [%] | C. V. (%) WLR [2] [%] | C. V. (%) RSB [3] [%] | C. V. (%) RCB [4] [%] | C. V. (%) CGM [5] [%] | C. V. (%) BPM [6] [%] | C. V. (%), Fungicidal Activities against WLB at 10 ppm [2] [%] | C. V. (%) Fungicidal Activities against RCB at 10 ppm [4] [%] | C. V. (%) Fungicidal Activities against RCB at 10 ppm (TABLE 6) [4] [%] | C. V. (%), Fungicidal activities against TLB at 10 ppm [6] [%]
COC(=O)C(=CSC)c1ccccc1COc1cccc(OC(F)=Cc2ccc(Cl)cc2)c1 [Compound 40] | 33 | 83 | 70 | 73 | 9 | 93 | – | – | – | –
CO/C=C(/C(=O)OC)c1ccccc1COc1cccc(OC(F)=C(c2ccccc2)C(F)(F)F)c1 [Compound 45, methyl (2E)-3-methoxy-2-{2′-{3′-(2′″-fluoro-1′″-trifluoromethylstyryl)-2′″-oxy}phenoxymethyl}phenyl-2-propenoate] | 0 | 100 | 94 | 90 | 0 | 100 | 100 | 90 | 90 | 100
CNC(=O)/C(=C/OC)c1ccccc1COc1cccc(OC(F)=C(c2ccccc2)C(F)(F)F)c1 [Compound 46, (2E)-N-methyl-3-methoxy-2-{2′-{3″-(2′″-fluoro-1′″-trifluoromethylstyryl)-2′″-oxy}phenoxymethyl}phenyl-2-propenoamide] | 11 | 53 | 20 | 0 | 27 | 0 | – | – | – | –
CON=C(C(=O)OC)c1ccccc1COc1cccc(OC(F)=C(c2ccccc2)C(F)(F)F)c1 [Compound 47] | 64 | 86 | 90 | 96 | 26 | 98 | – | – | – | 98
CNC(=O)C(=NOC)c1ccccc1COc1cccc(OC(F)=C(c2ccccc2)C(F)(F)F)c1 [Compound 48] | 70 | 100 | 45 | 97 | 28 | 98 | 100 | 100 | 100 | 100
COC=C(C(=O)OC)c1ccccc1COc1cccc(OC(F)=C(c2cccc(C)c2)C(F)(F)F)c1 [Compound 49] | 0 | 100 | 50 | 95 | 41 | 100 | 95 | – | – | 100
CNC(=O)C(=COC)c1ccccc1COc1cccc(OC(F)=C(c2cccc(C)c2)C(F)(F)F)c1 [Compound 50] | 33 | 0 | 25 | 0 | 5 | 0 | – | – | – | –
CON=C(C(=O)OC)c1ccccc1COc1cccc(OC(F)=C(c2cccc(C)c2)C(F)(F)F)c1 [Compound 51] | 3 | 100 | 60 | 41 | 0 | 100 | 90 | – | – | 98
CNC(=O)C(=NOC)c1ccccc1COc1cccc(OC(F)=C(c2cccc(C)c2)C(F)(F)F)c1 [Compound 52] | 55 | 100 | 90 | 95 | 28 | 100 | 100 | 95 | 95 | 100
COC=C(C(=O)OC)c1ccccc1COc1cccc(OC(F)=C(c2ccc(C)cc2)C(F)(F)F)c1 [Compound 53] | 0 | 100 | 50 | 100 | 55 | 100 | 99 | – | – | 96
CNC(=O)C(=COC)c1ccccc1COc1cccc(OC(F)=C(c2ccc(C)cc2)C(F)(F)F)c1 [Compound 54] | 20 | 16 | 20 | 16 | 9 | 41 | – | – | – | –
CON=C(C(=O)OC)c1ccccc1COc1cccc(OC(F)=C(c2ccc(C)cc2)C(F)(F)F)c1 [Compound 55] | 85 | 100 | 30 | 100 | 0 | 100 | – | 94 | 94 | 97
CNC(=O)C(=NOC)c1ccccc1COc1cccc(OC(F)=C(c2ccc(C)cc2)C(F)(F)F)c1 [Compound 56] | 48 | 100 | 65 | 97 | 0 | 100 | 100 | 92 | 92 | 100
COC(=O)C(=CSC)c1ccccc1COc1cccc(OC(F)=C(c2ccc(C)cc2)C(F)(F)F)c1 [Compound 57] | 40 | 96 | 45 | 53 | 9 | 98 | – | – | – | –
CCc1ccc(C(=C(F)Oc2cccc(OCc3ccccc3C(=COC)C(=O)OC)c2)C(F)(F)F)cc1 [Compound 58] | 0 | 100 | 40 | 90 | 25 | 100 | 95 | – | – | 99
CCc1ccc(C(=C(F)Oc2cccc(OCc3ccccc3C(=COC)C(=O)NC)c2)C(F)(F)F)cc1 [Compound 59] | 33 | 0 | 33 | 12 | 0 | 0 | – | – | – | –
CCc1ccc(C(=C(F)Oc2cccc(OCc3ccccc3C(=NOC)C(=O)OC)c2)C(F)(F)F)cc1 [Compound 60] | 18 | 98 | 40 | 0 | 0 | 100 | 93 | – | – | 97
